How the values were obtained:
Type in all cases: cell-based
[1] = test system: KBV; experiment: Reversal of Pgp-mediated paclitaxel resistance in human KBV cells assessed as cell viability at 5 uM in presence of paclitaxel incubated for 72 hrs by MTT assay
[2] = test system: KBV; experiment: Reversal of Pgp-mediated paclitaxel resistance in human KBV cells assessed as cell viability at 10 uM in presence of paclitaxel incubated for 72 hrs by MTT assay
[3] = Cytotoxicity against human KBV cells assessed as cell viability at 10 uM incubated for 72 hrs by MTT assay; conditions: read-out: Activity

| SMILES | Activity [1] [%] | Activity [2] [%] | viability at 72 h, 10 µM [3] [%] | Activity ([1]; filed as modulator) [%] | Activity ([2]; filed as modulator) [%] |
| --- | --- | --- | --- | --- | --- |
| CC(C)(O)[C@@H]1CC[C@@](C)([C@H]2CC[C@]3(C)[C@@H]2[C@H](O)C[C@@H]2[C@@]4(C)CC[C@H](OC(=O)[C@@H](N)CC(=O)O)C(C)(C)[C@@H]4CC[C@]23C)O1 | 110 | 92 | 106 |  |  |
| CC(C)(O)[C@H]1CC[C@@](C)([C@H]2CC[C@]3(C)[C@@H]2[C@H](O)C[C@@H]2[C@@]4(C)CC[C@H](OC(=O)[C@@H](N)Cc5ccc(O)cc5)C(C)(C)[C@@H]4CC[C@]23C)O1 |  |  | 87 | 28 | 27 |
| CC(C)(O)[C@H]1CC[C@@](C)([C@H]2CC[C@]3(C)[C@@H]2[C@H](O)C[C@@H]2[C@@]4(C)CC[C@H](OC(=O)CN)C(C)(C)[C@@H]4CC[C@]23C)O1 |  |  | 106 | 43 | 28 |
| C[C@@H](OCc1ccccc1)[C@H](N)C(=O)O[C@H]1CC[C@]2(C)[C@H]3C[C@@H](O)[C@@H]4[C@@H]([C@]5(C)CC[C@@H](C(C)(C)O)O5)CC[C@@]4(C)[C@]3(C)CC[C@H]2C1(C)C |  |  | 102 | 46 | 30 |
| CC(C)(C)OC(=O)NCCCC[C@H](NC(=O)OC(C)(C)C)C(=O)O[C@H]1CC[C@]2(C)[C@H]3C[C@@H](O)[C@@H]4[C@@H]([C@]5(C)CC[C@H](C(C)(C)O)O5)CC[C@@]4(C)[C@]3(C)CC[C@H]2C1(C)C |  |  | 147 | 34 | 31 |
| CC(C)(O)[C@@H]1CC[C@@](C)([C@H]2CC[C@]3(C)[C@@H]2[C@H](O)C[C@@H]2[C@@]4(C)CC[C@H](OC(=O)[C@@H](N)CCC(=O)O)C(C)(C)[C@@H]4CC[C@]23C)O1 | 95 | 92 | 112 |  |  |
| CC(C)(O)[C@@H]1CC[C@@](C)([C@H]2CC[C@]3(C)[C@@H]2[C@H](O)C[C@@H]2[C@@]4(C)CC[C@H](OC(=O)[C@@H](N)CCCCN)C(C)(C)[C@@H]4CC[C@]23C)O1 | 98 | 82 | 81 |  |  |
| CC(C)(C)OC(=O)N[C@@H](Cc1cn(C(=O)OC(C)(C)C)c2ccccc12)C(=O)O[C@H]1CC[C@]2(C)[C@H]3C[C@@H](O)[C@@H]4[C@@H]([C@]5(C)CC[C@@H](C(C)(C)O)O5)CC[C@@]4(C)[C@]3(C)CC[C@H]2C1(C)C | 138 | 147 | 137 |  |  |
| C[C@@H](OCc1ccccc1)[C@H](NC(=O)OC(C)(C)C)C(=O)O[C@H]1CC[C@]2(C)[C@H]3C[C@@H](O)[C@@H]4[C@@H]([C@]5(C)CC[C@H](C(C)(C)O)O5)CC[C@@]4(C)[C@]3(C)CC[C@H]2C1(C)C | 138 | 144 | 138 |  |  |
| CC(C)(O)[C@H]1CC[C@@](C)([C@H]2CC[C@]3(C)[C@@H]2[C@H](O)C[C@@H]2[C@@]4(C)CC[C@H](OC(=O)[C@@H](N)CC(=O)O)C(C)(C)[C@@H]4CC[C@]23C)O1 | 106 | 61 | 95 |  |  |
| CC(C)[C@H](NC(=O)OC(C)(C)C)C(=O)O[C@H]1CC[C@]2(C)[C@H]3C[C@@H](O)[C@@H]4[C@@H]([C@]5(C)CC[C@H](C(C)(C)O)O5)CC[C@@]4(C)[C@]3(C)CC[C@H]2C1(C)C |  |  | 120 | 31 | 20 |
| CC(C)(O)[C@@H]1CC[C@@](C)([C@H]2CC[C@]3(C)[C@@H]2[C@H](O)C[C@@H]2[C@@]4(C)CC[C@H](OC(=O)[C@@H](N)Cc5ccc(O)cc5)C(C)(C)[C@@H]4CC[C@]23C)O1 | 87 |  | 97 |  | 35 |
| C[C@@H](OCc1ccccc1)[C@H](NC(=O)OC(C)(C)C)C(=O)O[C@H]1CC[C@]2(C)[C@H]3C[C@@H](O)[C@@H]4[C@@H]([C@]5(C)CC[C@@H](C(C)(C)O)O5)CC[C@@]4(C)[C@]3(C)CC[C@H]2C1(C)C |  |  | 76 | 24 | 19 |
| CC(C)(O)[C@H]1CC[C@@](C)([C@H]2CC[C@]3(C)[C@@H]2[C@H](O)C[C@@H]2[C@@]4(C)CC[C@H](O)C(C)(C)[C@@H]4CC[C@]23C)O1 | 83 | 63 | 91 |  |  |
| CC(C)(C)OC(=O)C[C@H](NC(=O)OC(C)(C)C)C(=O)O[C@H]1CC[C@]2(C)[C@H]3C[C@@H](O)[C@@H]4[C@@H]([C@]5(C)CC[C@H](C(C)(C)O)O5)CC[C@@]4(C)[C@]3(C)CC[C@H]2C1(C)C |  |  | 85 | 32 | 20 |
| CC(C)(C)OC(=O)NCCCC[C@H](NC(=O)OC(C)(C)C)C(=O)O[C@H]1CC[C@]2(C)[C@H]3C[C@@H](O)[C@@H]4[C@@H]([C@]5(C)CC[C@@H](C(C)(C)O)O5)CC[C@@]4(C)[C@]3(C)CC[C@H]2C1(C)C |  |  | 123 | 28 | 21 |

| SMILES | Activity [1] [%] | Activity [2] [%] | viability at 72 h, 10 µM [3] [%] | Activity ([1]; filed as modulator) [%] | Activity ([2]; filed as modulator) [%] |
| --- | --- | --- | --- | --- | --- |
| CC(C)(C)OC(=O)N[C@@H](Cc1ccc(OC(C)(C)C)cc1)C(=O)O[C@H]1CC[C@]2(C)[C@H]3C[C@@H](O)[C@@H]4[C@@H]([C@]5(C)CC[C@@H](C(C)(C)O)O5)CC[C@@]4(C)[C@]3(C)CC[C@H]2C1(C)C | 78 |  | 104 |  | 22 |
| CC(C)(O)[C@@H]1CC[C@@](C)([C@H]2CC[C@]3(C)[C@@H]2[C@H](O)C[C@@H]2[C@@]4(C)CC[C@H](OC(=O)[C@@H](N)Cc5c[nH]c6ccccc56)C(C)(C)[C@@H]4CC[C@]23C)O1 |  |  | 52 | 30 | 27 |
| CC(C)(O)[C@H]1CC[C@@](C)([C@H]2CC[C@]3(C)[C@@H]2[C@H](O)C[C@@H]2[C@@]4(C)CC[C@H](OC(=O)[C@@H](N)CCC(=O)O)C(C)(C)[C@@H]4CC[C@]23C)O1 | 105 | 72 | 106 |  |  |
| CC(C)[C@H](NC(=O)OC(C)(C)C)C(=O)O[C@H]1CC[C@]2(C)[C@H]3C[C@@H](O)[C@@H]4[C@@H]([C@]5(C)CC[C@@H](C(C)(C)O)O5)CC[C@@]4(C)[C@]3(C)CC[C@H]2C1(C)C | 106 | 110 | 128 |  |  |
| CC(C)(O)[C@H]1CC[C@@](C)([C@H]2CC[C@]3(C)[C@@H]2[C@H](O)C[C@@H]2[C@@]4(C)CC[C@H](OC(=O)[C@@H](N)Cc5c[nH]c6ccccc56)C(C)(C)[C@@H]4CC[C@]23C)O1 |  |  | 81 | 32 | 30 |
| CC(C)(O)[C@H]1CC[C@@](C)([C@H]2CC[C@]3(C)[C@@H]2[C@H](O)C[C@@H]2[C@@]4(C)CC[C@H](OC(=O)[C@@H](N)CCCCN)C(C)(C)[C@@H]4CC[C@]23C)O1 | 85 |  | 45 |  | 29 |
| CC(C)(O)[C@H]1CC[C@@](C)([C@H]2CC[C@]3(C)[C@@H]2[C@H](O)C[C@@H]2[C@@]4(C)CC[C@H](OC(=O)[C@@H](N)Cc5ccccc5)C(C)(C)[C@@H]4CC[C@]23C)O1 |  |  | 74 | 26 | 21 |
| CC(C)(C)OC(=O)CC[C@H](NC(=O)OC(C)(C)C)C(=O)O[C@H]1CC[C@]2(C)[C@H]3C[C@@H](O)[C@@H]4[C@@H]([C@]5(C)CC[C@H](C(C)(C)O)O5)CC[C@@]4(C)[C@]3(C)CC[C@H]2C1(C)C |  |  | 82 | 31 | 19 |
| CC(C)[C@H](N)C(=O)O[C@H]1CC[C@]2(C)[C@H]3C[C@@H](O)[C@@H]4[C@@H]([C@]5(C)CC[C@@H](C(C)(C)O)O5)CC[C@@]4(C)[C@]3(C)CC[C@H]2C1(C)C |  |  | 96 | 49 | 25 |
| CC(C)(C)OC(=O)CC[C@H](NC(=O)OC(C)(C)C)C(=O)O[C@H]1CC[C@]2(C)[C@H]3C[C@@H](O)[C@@H]4[C@@H]([C@]5(C)CC[C@@H](C(C)(C)O)O5)CC[C@@]4(C)[C@]3(C)CC[C@H]2C1(C)C |  |  | 46 | 19 | 17 |
| CC(C)(C)OC(=O)N[C@@H](Cc1ccc(OC(C)(C)C)cc1)C(=O)O[C@H]1CC[C@]2(C)[C@H]3C[C@@H](O)[C@@H]4[C@@H]([C@]5(C)CC[C@H](C(C)(C)O)O5)CC[C@@]4(C)[C@]3(C)CC[C@H]2C1(C)C | 107 | 71 | 98 |  |  |
| CC(C)(O)[C@@H]1CC[C@@](C)([C@H]2CC[C@]3(C)[C@@H]2[C@H](O)C[C@@H]2[C@@]4(C)CC[C@H](O)C(C)(C)[C@@H]4CC[C@]23C)O1 | 74 | 72 | 81 |  |  |
| CC(C)[C@H](N)C(=O)O[C@H]1CC[C@]2(C)[C@H]3C[C@@H](O)[C@@H]4[C@@H]([C@]5(C)CC[C@H](C(C)(C)O)O5)CC[C@@]4(C)[C@]3(C)CC[C@H]2C1(C)C |  |  | 84 | 33 | 23 |
| CC(C)(C)OC(=O)N[C@@H](Cc1ccccc1)C(=O)O[C@H]1CC[C@]2(C)[C@H]3C[C@@H](O)[C@@H]4[C@@H]([C@]5(C)CC[C@H](C(C)(C)O)O5)CC[C@@]4(C)[C@]3(C)CC[C@H]2C1(C)C |  |  | 125 | 48 | 25 |
| CC(C)(C)OC(=O)NCC(=O)O[C@H]1CC[C@]2(C)[C@H]3C[C@@H](O)[C@@H]4[C@@H]([C@]5(C)CC[C@H](C(C)(C)O)O5)CC[C@@]4(C)[C@]3(C)CC[C@H]2C1(C)C |  |  | 106 | 28 | 22 |

Source: ChEMBL document CHEMBL4732258, “Pyxinol bearing amino acid residues: Easily achievable and promising modulators of P-glycoprotein-mediated multidrug resistance” (Eur J Med Chem, 2021)
